Data as given in patent US20100184703A1, “USE OF PEPTIDE DERIVATIVES FOR TREATING PATHOLOGIES RESULTING FROM ISCHEMIA” (CHIESI FARMACEUTICI S.p.A., priority 2007, published 2010).

System: ANF, BNP, fibronectin, β-MHC, TNFR1, TNFR2, TNFα, caspase-2 mRNA
Experiment: Quantitative RT-PCR of heart failure, fibrosis, hypertrophy and TNFα signaling markers after ischemia/reperfusion
Assay type: in vivo, rat
Settings: IR model
Experimental: In a second series of experiments, quantitative RT-PCR was performed to evaluate the level of expression of 2 markers of heart failure, Atrial Natriuretic Factor (ANF) and Brain Natriuretic Factor (BNP) as well as a marker of myocardial fibrosis, fibronectine, and myocardial hypertrophy, βMHC. […] B. mRNA expression levels of fibronectin a marker of fibrosis development, and β-Myosin Heavy Chain (β-MHC) a marker for hypertrophy development

[1] = increase in vehicle-injected animals

For Etanercept, the “mRNA expression level of TNFα” value [1] was “not by Etanercept”, the “mRNA expression level of TNFα receptor 2 (TNFR2)” value [1] was “not by Etanercept” and the “mRNA expression level of caspase-2” value [1] was “not by Etanercept”. For the same substance, the “mRNA expression level of fibronectin” value (marker of fibrosis development) was “could only prevent fibrosis development”, the “mRNA expression level of Atrial Natriuretic Factor (ANF)” value (marker of heart failure) was “significant increase” and the “mRNA expression level of brain natriuretic peptide (BNP)” value (marker of heart failure) was “significant increase”.
